ChEMBL document CHEMBL3045201, “Quantitative Structure-Activity Relationships of Fluazinam and Related Fungicidal N-phenylpyridinamines” (1996)
The source made the active and inactive calls. The rule behind the calls is not given here.

Legend:
Pyricularia oryzae [1] = assay: Fungicidal activity against Magnaporthe oryzae infected in 24 hr compound pre-treated Oryza sativa cv. Chukyoasahi assessed as disease control measured after 10 days; type: functional
Podosphaera fuliginea [2] = assay: Fungicidal activity against Podosphaera fuliginea infected in 24 hr compound pre-treated cucumber plant assessed as disease control measured after 10 days; type: functional
Rhizoctonia solani [3] = assay: Fungicidal activity against Rhizoctonia solani infected in 24 hr compound pre-treated Oryza sativa cv. Chukyoasahi assessed as disease control measured after 10 days; type: functional
Rattus norvegicus = organism: Rattus norvegicus; assay: Inhibition of mitochondrial uncoupling in Rattus norvegicus (rat); type: functional, organism-based
Podosphaera fuliginea [4] = assay: Fungicidal activity against Podosphaera fuliginea assessed as mitochondrial uncoupling activity; type: functional, organism-based
Botrytis cinerea [5] = assay: Fungicidal activity against Botryotinia fuckeliana assessed as SH-inhibition; type: functional, organism-based
Rhizoctonia solani [6] = assay: Fungicidal activity against Rhizoctonia solani assessed as SH-inhibition; type: functional, organism-based
Pyricularia oryzae [7] = assay: Fungicidal activity against Magnaporthe oryzae assessed as SH-inhibition; type: functional, organism-based
Botrytis cinerea [8] = assay: Fungicidal activity against Botryotinia fuckeliana assessed as mitochondrial uncoupling activity; type: functional, organism-based
Podosphaera fuliginea [9] = assay: Fungicidal activity against Podosphaera fuliginea assessed as SH-inhibition; type: functional, organism-based
Pyricularia oryzae [10] = assay: Fungicidal activity against Magnaporthe oryzae assessed as mitochondrial uncoupling activity; type: functional, organism-based
Rhizoctonia solani [11] = assay: Fungicidal activity against Rhizoctonia solani assessed as mitochondrial uncoupling activity; type: functional, organism-based

For `CCCOc1c(C(F)(F)F)cc([N+](=O)[O-])c(Nc2ncc(C(F)(F)F)cc2Cl)c1[N+](=O)[O-]`, which I90 (Pyricularia oryzae [1]) is on record?
Its I90 is 63 ppm.

What about the I90 (Podosphaera fuliginea [2]) of the same molecule?
The I90 was >500 ppm.

What about the I90 (Rhizoctonia solani [3]) of the same molecule?
Its I90 is 16 ppm.

With `C[S+]([O-])c1c(C(F)(F)F)cc([N+](=O)[O-])c(Nc2ncc(C(F)(F)F)cc2Cl)c1[N+](=O)[O-]` (centres undefined) as the molecule, how does the I90 (Pyricularia oryzae [1]) read?
Its I90 is 63 ppm.

What about the I90 (Podosphaera fuliginea [2]) of the same molecule?
Its I90 is >500 ppm.

And the I90 (Rhizoctonia solani [3])?
Its I90 is >500 ppm.

`CSc1c(C(F)(F)F)cc([N+](=O)[O-])c(Nc2ncc(C(F)(F)F)cc2Cl)c1[N+](=O)[O-]` was tested. Which I90 (Pyricularia oryzae [1]) did it give?
Its I90 is <16 ppm.

And the I90 (Podosphaera fuliginea [2])?
Its I90 is 16 ppm.

What about the I90 (Rhizoctonia solani [3]) of the same molecule?
Its I90 is 16 ppm.

For `CCCCOc1c(C(F)(F)F)cc([N+](=O)[O-])c(Nc2ncc(C(F)(F)F)cc2Cl)c1[N+](=O)[O-]`, which I90 (Pyricularia oryzae [1]) is on record?
Its I90 is >500 ppm.

And the I90 (Podosphaera fuliginea [2])?
Its I90 is >500 ppm.

What about the I90 (Rhizoctonia solani [3]) of the same molecule?
Its I90 is >500 ppm.

Which I90 (Pyricularia oryzae [1]) does the source give for `CCOc1c(C(F)(F)F)cc([N+](=O)[O-])c(Nc2ncc(C(F)(F)F)cc2Cl)c1[N+](=O)[O-]` here?
The I90 was 16 ppm.

What about the I90 (Podosphaera fuliginea [2]) of the same molecule?
The I90 was 16 ppm.

And the I90 (Rhizoctonia solani [3])?
The I90 was 16 ppm.

`O=[N+]([O-])c1cc(C(F)(F)F)c(I)c([N+](=O)[O-])c1Nc1ncc(C(F)(F)F)cc1Cl` was tested. Which I90 (Pyricularia oryzae [1]) did it give?
The I90 was 16 ppm.

And the I90 (Podosphaera fuliginea [2])?
The I90 was >500 ppm.

What about the I90 (Rhizoctonia solani [3]) of the same molecule?
Its I90 is >500 ppm.

What does the source list for `O=[N+]([O-])c1cc(C(F)(F)F)c(Br)c([N+](=O)[O-])c1Nc1ncc(C(F)(F)F)cc1Cl`?
I90 (Pyricularia oryzae [1]): 16 ppm; I90 (Podosphaera fuliginea [2]): 63 ppm; I90 (Rhizoctonia solani [3]): 63 ppm

Which results are given for `COc1c(C(F)(F)F)cc([N+](=O)[O-])c(Nc2ncc(C(F)(F)F)cc2Cl)c1[N+](=O)[O-]`?
I90 (Pyricularia oryzae [1]): <16 ppm; I90 (Podosphaera fuliginea [2]): 63 ppm; I90 (Rhizoctonia solani [3]): 16 ppm

Which I90 (Pyricularia oryzae [1]) does the source give for `Nc1c(C(F)(F)F)cc([N+](=O)[O-])c(Nc2ncc(C(F)(F)F)cc2Cl)c1[N+](=O)[O-]` here?
Its I90 is >500 ppm.

And the I90 (Podosphaera fuliginea [2])?
The I90 was >500 ppm.

What about the I90 (Rhizoctonia solani [3]) of the same molecule?
The I90 was >500 ppm.

How did the Activity (Rattus norvegicus) turn out when `O=[N+]([O-])c1cc(C(F)(F)F)c(Cl)c([N+](=O)[O-])c1Nc1ncc(C(F)(F)F)cc1Cl` [FLUAZINAM] was run?
Its Activity is “Active”.

What about the I90 (Pyricularia oryzae [1]) of the same molecule?
Its I90 is <16 ppm.

What about the Activity (Podosphaera fuliginea [4]) of the same molecule?
Its Activity is “Active”.

What about the I90 (Podosphaera fuliginea [2]) of the same molecule?
Its I90 is 63 ppm.

What about the Activity (Botrytis cinerea [5]) of the same molecule?
The Activity was “Active”.

And the Activity (Rhizoctonia solani [6])?
Its Activity is “Active”.

What about the Activity (Pyricularia oryzae [7]) of the same molecule?
The Activity was “Active”.

And the Activity (Botrytis cinerea [8])?
The Activity was “inactive”.

What about the Activity (Podosphaera fuliginea [9]) of the same molecule?
Its Activity is “inactive”.

And the Activity (Pyricularia oryzae [10])?
Its Activity is “Active”.

And the Activity (Rhizoctonia solani [11])?
Its Activity is “Active”.

Which I90 (Pyricularia oryzae [1]) does the source give for `O=[N+]([O-])c1cc(C(F)(F)F)c(OCC(F)(F)F)c([N+](=O)[O-])c1Nc1ncc(C(F)(F)F)cc1Cl` here?
Its I90 is >500 ppm.

And the I90 (Podosphaera fuliginea [2])?
Its I90 is 16 ppm.

And the I90 (Rhizoctonia solani [3])?
The I90 was 63 ppm.

Which I90 (Pyricularia oryzae [1]) does the source give for `CC(C)COc1c(C(F)(F)F)cc([N+](=O)[O-])c(Nc2ncc(C(F)(F)F)cc2Cl)c1[N+](=O)[O-]` here?
The I90 was >500 ppm.

What about the I90 (Podosphaera fuliginea [2]) of the same molecule?
The I90 was >500 ppm.

What about the I90 (Rhizoctonia solani [3]) of the same molecule?
The I90 was 63 ppm.
